Results published in PubChem BioAssay (NCI).
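1) Cells in 96-well plates. 2) Compound, 48 h, 5 concentrations. 3) Linear interpolation between surrounding doses. 4) Unreached endpoint = highest concentration. At the TGI there is no net growth.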 Residues, ends and D or L forms follow the SMILES beside them. *: point of attachment. Boc = CC(C)(C)OC(=O)*; OBn = c1ccc(CO*)cc1

Columns and labels:
Experiment in all cases: NCI tumour cell line growth inhibition, 48 h
[1] = system: IGROV1 ovarian
[2] = system: PC-3 prostate
[3] = system: SF-268 CNS
[4] = system: UACC-62 melanoma
[5] = system: SR leukemia
[6] = system: SNB-19 CNS
[7] = system: HOP-62 NSCLC
[8] = system: OVCAR-3 ovarian
[9] = system: OVCAR-4 ovarian
[10] = system: SK-MEL-28 melanoma
[11] = system: SN12C renal
[12] = system: SF-539 CNS
[13] = system: TK-10 renal
[14] = system: HCC-2998 colon
[15] = system: MOLT-4 leukemia
[16] = system: OVCAR-8 ovarian
[17] = system: NCI-H226 lung
[18] = system: CAKI-1 renal
[19] = system: 786-0 renal
[20] = system: UO-31 renal
[21] = system: MDA-MB-231 breast
[22] = system: A498 renal
[23] = system: CCRF-CEM leukemia
[24] = system: SNB-75 CNS
[25] = system: LOX IMVI melanoma
[26] = system: MDA-N
[27] = system: NCI-H460 lung
[28] = system: HL-60(TB) leukemia
[29] = system: NCI/ADR-RES ovarian
[30] = system: ACHN renal
[31] = system: COLO 205 colon
[32] = system: RXF 393 renal
[33] = system: OVCAR-5 ovarian
[34] = system: SK-MEL-5 melanoma
[35] = system: K-562 leukemia
[36] = system: U251 CNS
[37] = system: SK-MEL-2 melanoma
[38] = system: MCF7 breast
[39] = system: T-47D breast
[40] = system: MDA-MB-435
[41] = system: HCT-116 colon
[42] = system: HCT-15 colon
[43] = system: UACC-257 melanoma
[44] = system: MALME-3M melanoma
[45] = system: SK-OV-3 ovarian
[46] = system: HOP-92 NSCLC
[47] = system: HS 578T breast
[48] = system: SW-620 colon
[49] = system: HT29 colon
[50] = system: A549 NSCLC
[51] = system: EKVX NSCLC
[52] = system: SF-295 CNS
[53] = system: NCI-H23 lung
[54] = system: KM12 colon
[55] = system: BT-549 breast
[56] = system: NCI-H522 lung
[57] = system: M14 melanoma
[58] = system: DU-145 prostate
[59] = system: RPMI-8226 leukemia

For `CC[C@]12C=CCN3CC[C@@]4(c5cc(N=O)c(OC)cc5N(C)[C@H]4[C@@](O)(C(=O)NC(Cc4c[nH]c5ccccc45)C(=O)OC)[C@@H]1O)[C@@H]32` (stereo not given in full), the TGI [1] was 34.9 µM, the TGI [2] was 23.9 µM and the TGI [3] was > 100 µM. For the same compound, the TGI [4] was 29.6 µM, the TGI [5] was 54.7 µM and the TGI [6] was 71.3 µM. The TGI [7] was 34.6 µM, the TGI [8] was 28.6 µM and the TGI [9] was 29.2 µM. The TGI [10] was 86.8 µM, the TGI [11] was 71.5 µM and the TGI [12] was 30.5 µM. The TGI [13] was 31.7 µM, the TGI [14] was 29 µM and the TGI [15] was 27.9 µM. It also gave a TGI [16] of 42.6 µM, a TGI [17] of 52.4 µM and a TGI [18] of 31.9 µM. The TGI [19] was > 100 µM, the TGI [20] was 45.3 µM and the TGI [21] was 34.7 µM. The TGI [22] was > 100 µM, the TGI [23] was 24.3 µM and the TGI [24] was 29.4 µM. The TGI [25] was 47 µM, the TGI [26] was 46.6 µM and the TGI [27] was 38.7 µM. The TGI [28] was 14.7 µM, the TGI [29] was > 100 µM and the TGI [30] was 35.5 µM. It also gave a TGI [31] of 29.2 µM, a TGI [32] of 26.9 µM and a TGI [33] of 43.1 µM. The TGI [34] was 28 µM, the TGI [35] was 31.4 µM and the TGI [36] was 21.7 µM. It also gave a TGI [37] of 34.1 µM, a TGI [38] of 35.2 µM and a TGI [39] of 32 µM. For the same compound, the TGI [40] was 33.3 µM, the TGI [41] was 28.3 µM and the TGI [42] was 44.7 µM. It also gave a TGI [43] of 29.6 µM, a TGI [44] of 34.8 µM and a TGI [45] of 38.9 µM. The TGI [46] was 28.8 µM, the TGI [47] was > 100 µM and the TGI [48] was 29.7 µM. The TGI [49] was 29.3 µM, the TGI [50] was > 100 µM and the TGI [51] was 52.2 µM. It also gave a TGI [52] of 32.7 µM, a TGI [53] of 38.5 µM and a TGI [54] of 26.1 µM. For the same compound, the TGI [55] was 29.8 µM, the TGI [56] was 6.75 µM and the TGI [57] was 41.1 µM. The TGI [58] was 30.9 µM.
With `CC(C)CC(NC(=O)OC(C)(C)C)C(=O)NC(CC(=O)OCc1ccccc1)C(N)=O` (stereo not drawn) (Boc-Leu-Asp(OBn)-NH2; configuration not given here) the TGI [1] was > 100 µM, the TGI [2] was > 100 µM and the TGI [3] was > 100 µM. For the same compound, the TGI [4] was > 100 µM, the TGI [5] was > 100 µM and the TGI [6] was > 100 µM. For the same compound, the TGI [8] was > 100 µM, the TGI [9] was > 100 µM and the TGI [10] was > 100 µM. For the same compound, the TGI [11] was > 100 µM, the TGI [12] was > 100 µM and the TGI [13] was > 100 µM. For the same compound, the TGI [16] was > 100 µM, the TGI [17] was > 100 µM and the TGI [18] was > 100 µM. The TGI [19] was > 100 µM, the TGI [20] was > 100 µM and the TGI [21] was > 100 µM. For the same compound, the TGI [22] was > 100 µM, the TGI [24] was > 100 µM and the TGI [25] was > 100 µM. The TGI [26] was > 100 µM, the TGI [29] was > 100 µM and the TGI [30] was > 100 µM. For the same compound, the TGI [31] was > 100 µM, the TGI [32] was > 100 µM and the TGI [33] was > 100 µM. For the same compound, the TGI [34] was > 100 µM, the TGI [35] was > 100 µM and the TGI [36] was > 100 µM. The TGI [37] was > 100 µM, the TGI [38] was > 100 µM and the TGI [39] was > 100 µM. The TGI [40] was > 100 µM, the TGI [41] was > 100 µM and the TGI [42] was > 100 µM. The TGI [43] was > 100 µM, the TGI [44] was > 100 µM and the TGI [45] was > 100 µM. For the same compound, the TGI [46] was > 100 µM, the TGI [47] was > 100 µM and the TGI [48] was > 100 µM. The TGI [49] was > 100 µM, the TGI [50] was > 100 µM and the TGI [51] was > 100 µM. The TGI [52] was > 100 µM, the TGI [53] was > 100 µM and the TGI [54] was > 100 µM. For the same compound, the TGI [55] was > 100 µM, the TGI [56] was > 100 µM and the TGI [57] was > 100 µM. The TGI [58] was > 100 µM.
With `O=c1c(-c2ccccc2)c2n(c3ccccc13)CCN2` the TGI [1] was > 100 µM, the TGI [2] was > 100 µM and the TGI [3] was > 100 µM. The TGI [4] was > 100 µM, the TGI [5] was > 100 µM and the TGI [6] was 86.9 µM. For the same compound, the TGI [7] was > 100 µM, the TGI [8] was 66.6 µM and the TGI [9] was > 100 µM. For the same compound, the TGI [10] was > 100 µM, the TGI [11] was > 100 µM and the TGI [12] was > 100 µM. For the same compound, the TGI [13] was > 100 µM, the TGI [14] was > 100 µM and the TGI [15] was > 100 µM. For the same compound, the TGI [16] was > 100 µM, the TGI [17] was > 100 µM and the TGI [18] was > 100 µM. The TGI [19] was > 100 µM, the TGI [20] was > 100 µM and the TGI [21] was > 100 µM. The TGI [22] was > 100 µM, the TGI [23] was > 100 µM and the TGI [24] was > 100 µM. For the same compound, the TGI [59] was > 100 µM, the TGI [25] was > 100 µM and the TGI [26] was > 100 µM. The TGI [27] was > 100 µM, the TGI [28] was > 100 µM and the TGI [29] was > 100 µM. The TGI [30] was > 100 µM, the TGI [31] was > 100 µM and the TGI [33] was > 100 µM. The TGI [34] was > 100 µM, the TGI [35] was > 100 µM and the TGI [36] was > 100 µM. The TGI [37] was 61.1 µM, the TGI [38] was > 100 µM and the TGI [39] was > 100 µM. For the same compound, the TGI [40] was > 100 µM, the TGI [41] was > 100 µM and the TGI [42] was > 100 µM. For the same compound, the TGI [43] was > 100 µM, the TGI [46] was > 100 µM and the TGI [47] was > 100 µM. The TGI [48] was > 100 µM, the TGI [49] was > 100 µM and the TGI [50] was > 100 µM. For the same compound, the TGI [51] was > 100 µM, the TGI [52] was > 100 µM and the TGI [53] was > 100 µM. The TGI [54] was > 100 µM, the TGI [55] was > 100 µM and the TGI [57] was > 100 µM. The TGI [58] was > 100 µM.
